Columns and labels:
Human 11-β-HSD1 = Human 11-β-HSD1 (Homo sapiens, UniProt P28845); assay: Measurement of 11β-HSD1 activity (SPA, 3H-cortisone, membrane), human enzyme; type: biochemical; details: 125 nM 3H-cortisone, 3 mM NADPH, 0.5 μg membrane, room temperature 1 hr
Protocol: (§1) Measurement of 11β-HSD1 activity
(§2) The reaction was incubated at room temperature for 1 hr before it was stopped by addition of […] containing 20 mM NaPO4 pH 7.5, 30 μM 18β-glycyrrhetinic acid, 1 μg/ml monoclonal anti-cortisol antibody (Biosource) and 2 mg/ml anti-mouse antibody coated scintillation proximity assay (SPA) beads (Amersham Bioscience). The mixture was incubated at room temperature for 2 hrs with vigorous shaking and analyzed on TopCount scintillation counter.

Mouse 11-β-HSD1 = Mouse 11-β-HSD1 (Mus musculus, UniProt P50172); assay: Measurement of 11β-HSD1 activity (SPA, 3H-cortisone, membrane), mouse enzyme; type: biochemical; details: 125 nM 3H-cortisone, 3 mM NADPH, 0.5 μg membrane, room temperature 1 hr
Mouse 11-β-HSD1, sequence (P50172 whole entry): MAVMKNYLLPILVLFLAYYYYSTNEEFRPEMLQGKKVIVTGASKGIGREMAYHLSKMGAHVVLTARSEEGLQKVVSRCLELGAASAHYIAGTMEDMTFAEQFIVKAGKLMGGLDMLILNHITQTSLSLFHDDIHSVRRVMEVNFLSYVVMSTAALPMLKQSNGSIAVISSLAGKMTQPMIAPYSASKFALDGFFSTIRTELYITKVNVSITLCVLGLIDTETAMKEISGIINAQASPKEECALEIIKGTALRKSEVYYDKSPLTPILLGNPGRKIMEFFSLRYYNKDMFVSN
Protocol: as §1, §2

Human 11-β-HSD1, sequence (P28845 whole entry): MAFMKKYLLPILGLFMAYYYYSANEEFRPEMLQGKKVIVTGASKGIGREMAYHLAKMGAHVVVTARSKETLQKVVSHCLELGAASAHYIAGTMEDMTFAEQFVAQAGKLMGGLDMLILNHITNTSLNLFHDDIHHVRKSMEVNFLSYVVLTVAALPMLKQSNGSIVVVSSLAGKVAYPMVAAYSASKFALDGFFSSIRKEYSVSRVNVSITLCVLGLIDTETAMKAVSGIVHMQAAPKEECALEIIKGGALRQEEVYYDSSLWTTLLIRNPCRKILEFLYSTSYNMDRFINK

IC50 (Human 11-β-HSD1) [nM] | IC50 (Mouse 11-β-HSD1) [nM] | Structure (SMILES)
5250 | > 10000 | CC(=O)c1ccc(S(=O)(=O)N2CCCC(C)(O)CC2)cc1 (centres unmarked) [Compound 29]
58 | 1880 | COc1ccc(S(=O)(=O)N2CCC=C(c3ccccc3)CC2)cc1 [Compound 34]
178 | 1550 | COc1ccc(S(=O)(=O)N2CC=C(c3ccccc3)CCC2)cc1 [Compound 40]
30 | 263 | CC(C)(C)c1ccc(S(=O)(=O)N2CCCN(C3CCCC3)CC2)cc1 [Compound 43]
254 | 2540 | CC(=O)N1CCCN(S(=O)(=O)c2ccc(C(C)(C)C)cc2)CC1 [Compound 44]
3740 | 2300 | CC(C)(C)c1ccc(S(=O)(=O)N2CCCNCC2)cc1 [Compound 45]
256 | 2760 | CC(C)(C)OC(=O)N1CCCN(S(=O)(=O)c2ccc(C(C)(C)C)cc2)CC1 [Compound 46]
19 | 102 | CC(C)(C)c1ccc(S(=O)(=O)N2CCCN(C3CC4CCC3C4)CC2)cc1 (centres unmarked) [Compound 47]

The next lines start with the molecule.

Structure (SMILES) | IC50 (Human 11-β-HSD1) [nM] | IC50 (Mouse 11-β-HSD1) [nM]
COc1ccc(S(=O)(=O)N2CCCC(O)(c3ccccc3)CC2)cc1 (centres unmarked) [Compound 1] | 1320 | 1980
O=S(=O)(c1ccc(Cl)cc1)N1CCCC(O)(c2ccccc2)CC1 (centres unmarked) [Compound 6] | 1070 | 2720
CC(C)(C)c1ccc(S(=O)(=O)N2CCCC(O)CC2)cc1 (centres unmarked) [Compound 11] | 466 | 629
COC1CCCN(S(=O)(=O)c2ccc(C(C)(C)C)cc2)CC1 (centres unmarked) [Compound 12] | 7 | 165
COC1(C)CCCN(S(=O)(=O)c2ccc(C(C)(C)C)cc2)CC1 (centres unmarked) [Compound 18] | 3 | 57
